Consider eleven molecules from ChEMBL document CHEMBL1201862, “PubChem BioAssay data set” (2004).

Test systems include TK-10; U-251; A498; DU-145; NCI/ADR-RES; IGROV-1; SN12C; MDA-MB-231; PC-3; EKVX; UO-31; SK-MEL-28; M14; SW-620; SF-539; NCI-H226; SR; KM12; MDA-N; HCC 2998.
Common to all, as to experiment: NCI tumour cell line growth inhibition, 48 h

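Growth conditions: 96-well plates. Treatment: test compound, 48 hours, 5 concentrations. Analysis: linear interpolation between bracketing concentrations; unreached endpoints set to highest concentration. At the GI50, growth is halved.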 Active and inactive are the calls of the source. Cut-off read from the data, not from the text of the source: active = GI50 up to about 1.1 µM and inactive = higher.

For the molecule `O=Cc1ccc2[nH]c(=O)oc2c1`, the GI50 in the test with TK-10 is > 100 µM (inactive); in the test with U-251 it was 84.5 µM (inactive); in the test on A498, > 100 µM (inactive); in the test on DU-145 it was > 100 µM (inactive); in the test on NCI/ADR-RES, > 100 µM (inactive); in the test on IGROV-1 it was > 100 µM (inactive). The GI50 in the test with SN12C was > 100 µM (inactive); in the test on MDA-MB-231 it was > 100 µM (inactive); with PC-3 it was > 100 µM (inactive); in the test with EKVX, > 100 µM (inactive); with UO-31, 23.1 µM (inactive); in the test on SK-MEL-28 it was > 100 µM (inactive). Moreover, the GI50 with M14 was > 100 µM (inactive); in the test with SW-620, > 100 µM (inactive); with SF-539, > 100 µM (inactive); in the test on NCI-H226 it was > 100 µM (inactive); in the test with SR, 39.7 µM (inactive); in the test with KM12 it was > 100 µM (inactive). The GI50 in the test on MDA-N is > 100 µM (inactive).
On to `CN1CCN(CCCN)CC1`, for which the GI50 in the test with TK-10, in the test on U-251, in the test with A498, in the test with DU-145, in the test on NCI/ADR-RES and with IGROV-1 was > 100 µM (inactive) each time. Besides, the GI50 with SN12C, in the test on MDA-MB-231, in the test on PC-3, in the test with EKVX, in the test on UO-31 and with SK-MEL-28 was > 100 µM (inactive) throughout. The GI50 in the test with M14, in the test with SW-620, in the test with NCI-H226, in the test on SR, with KM12 and with MDA-N was > 100 µM (inactive) in each case.
Consider `CC(C)(C)/N=c1/n(C(C)(C)C)oc(=O)n1-c1ccccc1`, for which the GI50 in the test on TK-10, in the test with U-251, with A498, in the test with DU-145, in the test with NCI/ADR-RES and with IGROV-1 was > 50 µM (inactive) in each case. The GI50 with SN12C, with MDA-MB-231, in the test with PC-3, in the test on EKVX, in the test with UO-31 and in the test on SK-MEL-28 was > 50 µM (inactive) each time. For the same molecule, the GI50 with M14, in the test with SW-620, in the test with SF-539, in the test with NCI-H226, with SR and in the test on KM12 was > 50 µM (inactive) each time. Moreover, the GI50 in the test with MDA-N was > 50 µM (inactive).
For `CCSCCCC(=O)O`, the GI50 with TK-10, with HCC 2998, with U-251, with A498, with DU-145 and with NCI/ADR-RES was > 100 µM (inactive) throughout. For the same molecule, the GI50 in the test with IGROV-1, with SN12C, with MDA-MB-231, in the test with PC-3, with EKVX and in the test with UO-31 was > 100 µM (inactive) each time. The GI50 with SK-MEL-28, with M14, with SW-620, in the test on NCI-H226, with SR and with KM12 was > 100 µM (inactive) throughout. Further, the GI50 in the test on MDA-N was > 100 µM (inactive).
For the molecule `CCCCCCn1c(SC)nc(COC(=O)NC)c1COC(=O)NC`, the GI50 in the test with TK-10 is 16.7 µM (inactive); in the test with A498 it was 16.3 µM (inactive); in the test on DU-145, 16.5 µM (inactive); in the test with NCI/ADR-RES, 25.5 µM (inactive); with IGROV-1 it was 15.3 µM (inactive); with SN12C it was 16.7 µM (inactive). Further, the GI50 in the test on MDA-MB-231 is 17.6 µM (inactive); in the test on PC-3 it was 15.1 µM (inactive); in the test on EKVX, 13.9 µM (inactive); in the test on UO-31, 16.9 µM (inactive); with SK-MEL-28, 17.7 µM (inactive); with M14 it was 21.3 µM (inactive). For the same molecule, the GI50 with SW-620 is 19.2 µM (inactive); in the test on SF-539 it was 17.6 µM (inactive); in the test on NCI-H226 it was 17.2 µM (inactive); in the test on SR it was 19.7 µM (inactive); in the test on KM12 it was 18.2 µM (inactive); in the test with MDA-N it was 19.2 µM (inactive).
`CCCN(CCC)C(=S)N/N=C/c1ccccn1`: the GI50 in the test on TK-10 is 0.0203 µM (active); in the test on HCC 2998, 0.398 µM (active); in the test with U-251, < 0.0138 µM (active); in the test with A498 it was 0.0372 µM (active); with DU-145, 0.143 µM (active); in the test on NCI/ADR-RES, < 0.01 µM (active). For the same molecule, the GI50 with IGROV-1 was < 0.01 µM (active); in the test with SN12C it was < 0.0195 µM (active); with MDA-MB-231 it was < 0.01 µM (active); in the test with PC-3 it was < 0.01 µM (active); in the test with EKVX, 0.046 µM (active); in the test on UO-31, 0.0239 µM (active). Moreover, the GI50 in the test with SK-MEL-28 was 0.17 µM (active); with M14, < 0.0125 µM (active); in the test with SW-620, < 0.014 µM (active); with SF-539, 0.118 µM (active); with SR it was < 0.01 µM (active); in the test with KM12 it was < 0.0139 µM (active). In addition, in the test on MDA-N, the GI50 was 0.0989 µM (active).
As for `CN(C)/C=N/c1ccc2c3c(cccc13)-c1ccccc1-2`, the GI50 in the test with TK-10 was 13.8 µM (inactive); with U-251, 13.4 µM (inactive); in the test on A498, 10.1 µM (inactive); in the test with DU-145 it was 12.7 µM (inactive); with NCI/ADR-RES, 14.9 µM (inactive); with IGROV-1, 15.5 µM (inactive). Also, the GI50 was 12.6 µM (inactive) with SN12C; 14.3 µM (inactive) in the test with MDA-MB-231; 12.8 µM (inactive) with PC-3; 10.5 µM (inactive) in the test on EKVX; 5.22 µM (inactive) in the test with UO-31; 17.7 µM (inactive) in the test on SK-MEL-28. Besides, the GI50 in the test on M14 was 10.2 µM (inactive); in the test with SF-539, 12.1 µM (inactive); with NCI-H226 it was 10.6 µM (inactive); in the test on SR, 10.3 µM (inactive); in the test on MDA-N it was 14.5 µM (inactive).
With `Cn1c2c(c3c(=O)[nH]ncc31)Cc1ccccc1-2`, the GI50 with TK-10 was 5.81 µM (inactive); in the test with U-251, 13.5 µM (inactive); in the test with A498, 6.62 µM (inactive); with DU-145, 10.6 µM (inactive); with NCI/ADR-RES, 16 µM (inactive); in the test on IGROV-1, 6.79 µM (inactive). Moreover, the GI50 is 7.62 µM (inactive) in the test on SN12C; 14 µM (inactive) with MDA-MB-231; 21.5 µM (inactive) in the test on PC-3; 22.7 µM (inactive) in the test on EKVX; 5.53 µM (inactive) in the test with UO-31; 24.4 µM (inactive) in the test on SK-MEL-28. For the same molecule, the GI50 in the test on M14 is 15.6 µM (inactive); with SW-620, 7.24 µM (inactive); with SF-539 it was 19.2 µM (inactive); with NCI-H226 it was 13.8 µM (inactive); in the test on SR it was 3.79 µM (inactive); in the test on KM12, 16.3 µM (inactive). In the test with MDA-N, the GI50 is 12.9 µM (inactive).
As for `CC(C)COP(C)(=O)C(N)(C(F)(F)F)C(F)(F)F` (stereo not given), the GI50 with TK-10, in the test on HCC 2998, in the test with U-251, with DU-145, in the test with NCI/ADR-RES and in the test with IGROV-1 was > 100 µM (inactive) throughout. Besides, the GI50 with SN12C, in the test with MDA-MB-231, in the test on PC-3, in the test with EKVX, in the test with UO-31 and in the test on SK-MEL-28 was > 100 µM (inactive) in each case. For the same molecule, the GI50 in the test on M14, with SW-620, in the test on SF-539, in the test on NCI-H226, with SR and with KM12 was > 100 µM (inactive) throughout. In addition, the GI50 in the test with MDA-N is > 100 µM (inactive).
For the molecule `CCOc1cnc(C(O)(c2ccccc2)c2ccccc2)o1`, the GI50 in the test with HCC 2998, in the test on U-251, in the test with A498, in the test on DU-145, in the test on NCI/ADR-RES and with IGROV-1 was > 100 µM (inactive) each time. Further, the GI50 with SN12C, in the test on MDA-MB-231, in the test on PC-3, in the test on EKVX, with UO-31 and in the test with SK-MEL-28 was > 100 µM (inactive) in each case. For the same molecule, the GI50 in the test on M14, with SW-620, in the test with SF-539, in the test on NCI-H226, in the test on SR and in the test on KM12 was > 100 µM (inactive) throughout. Moreover, the GI50 with MDA-N is > 100 µM (inactive).
As to `CCN(CC)CCOCCn1c2c(c3ccccc31)CCCC2`, the GI50 with TK-10 is 19.1 µM (inactive); in the test on HCC 2998, 16.8 µM (inactive); in the test on U-251 it was 17.2 µM (inactive); in the test on DU-145, 30.9 µM (inactive); with NCI/ADR-RES it was 12.7 µM (inactive); in the test on IGROV-1, 18.9 µM (inactive). Further, the GI50 in the test with SN12C is 18.3 µM (inactive); with MDA-MB-231, 18 µM (inactive); in the test with PC-3 it was 17.8 µM (inactive); with EKVX, 40.2 µM (inactive); in the test on UO-31, 14.5 µM (inactive); with SK-MEL-28, 17 µM (inactive). The GI50 with M14 is 16.9 µM (inactive); in the test with SW-620, 17.1 µM (inactive); in the test with SF-539, 16.6 µM (inactive); in the test with NCI-H226, 26.4 µM (inactive); in the test with SR, 16.3 µM (inactive); in the test with KM12 it was 34.5 µM (inactive). In addition, in the test on MDA-N, the GI50 was 17.2 µM (inactive).
